Test [1] deals with URAT1 (Homo sapiens (Human), UniProt Q96S37). The test is described as follows: URAT1 in vitro inhibition activity, Method B (14C-uric acid uptake in HEK293-URAT1 cells). In kind it is cell-based. The following applies: 5.0 μmol/L 14C-uric acid, 2 min uptake. Here is the method:
HEK293-URAT1 cell Lines were donated by Japan Fuji Biomedical Research Institute. Negative control cell of HEK293 (MOCK cells) which was transfected with pcDNA3.1 empty vector. HEK293-URAT1 cell lines and MOCK cell lines were cultured in complete growth medium consisting of DMEM supplemented with 10% FBS, penicillin and streptomycin.
Preparation of working solution: Each stock solutions was diluted to different concentrations (6, 20, 60, 200 and 600 μmol/L) with DMSO as 200× working solution, which was then diluted to 2×compound working solution with HBSS (Cl^− free) buffer. Radiolabeled substrate ^14C-Uric acid solution was diluted with HBSS (Cl^− free) buffer to obtain 2× working solution which was mixed with an equal volume of 2× compound working solution to obtain the mixture of radiolabeled substrate and compound working solution.
HER293-URAT1 and MOCK cells were seeded onto 24-well plates at the density of 1.5×10^6 cells per well. The cells were incubated at 37° C., 5% CO2 overnight. After cultured for approximately 2 to 3 days, cells were used for the experiments. The culture medium were removed from the wells, and cells were washed with HBSS (Cl^− free) and incubated in 37° C. HBSS (Cl^− free) for 10 min. HBSS was replaced with 500 μL of the mixture of radiolabeled substrate and compound working solution. The final concentration of ^14C-Uric acid in the assay was 5.0 μmol/L. Plates were incubated at 37° C., 5% CO2 for 2 min, and the reaction was stopped by the addition of pre-chilled HBSS (Cl^− free) by washing three times. 400 μL NaOH ([…]) was added to lyse the cells and the cell lysate was collected to scintillation vials, and 3 ml scintillant (Aquasol-2, PerkinElmer) was added and after mixing completely, the radioactivity was counted by Tri-Carb 2910TR liquid scintillation counter. Each concentration of compounds, positive control and negative control were repeated in two wells (n=2). Inhibition % data were calculated using the formula: Inhibition=[100×(U−U0)/(Uc−U0)]%, and analyzed using Prism5 software.
U0: Average of signals of MOCK cells;
Uc: Average of signals of radiolabeled substrate. The half inhibition concentration of the tested compounds to URAT1 were analyzed using Prism 5 software.

For test [2], the system named is potassium oxonate-induced hyperuricemia in rats. Put plainly: Effect on potassium oxonate-induced hyperuricemia in rats (serum uric acid). In kind it is in vivo, rat. The following applies: male SD rats, 5 mg/kg oral; for serum uric acid levels, time after dosing 0.5 h: 0.5 h after dosing; for serum uric acid levels, time after dosing 1 h: 1 h after dosing; for serum uric acid levels, time after dosing 2 h: 2 h after dosing; for serum uric acid levels, time after dosing 3 h: 3 h after dosing; for serum uric acid levels, time after dosing 4 h: 4 h after dosing. Here is the method: Healthy male SD rats, weighing 250±20 g, were used. In the experiment, except for 10 rats as normal control group were orally administered with distilled water, the others were orally administered with yeast extract (20 g/kg, qd×5 days). One hour after last administration, all the rats were intraperitoneal injection with 250 mg/kg potassium oxonate while normal control group was treated with an equal volume of 0.5% CMC-Na (injection volume of 2 ml/kg). After one hour, rats were anesthetized with isoflurane and the serum uric acid was determined by uric acid test strip. All the rats were divided into groups by uric acid. The model control group and experimental groups was given orally administration 0.5% CMC-Na or compounds with a dose of 10 ml/kg-bw. Phosphotungstic acid precipitation method was used to detect serum uric acids in inner canthus blood at 0.5, 1, 2, 3, 4 h after administration, respectively. Substantially, observing the effects of compounds on serum uric acids levels and calculating each of groups' AUC and the inhibition of uric acid increased area by the equation as follows: […]
As shown in the equation, AUC0 indicated the AUC of model control group, AUC1 indicated the AUC of therapy group, AUC2 indicated the AUC of normal control group.

Chain of URAT1 (Q96S37 whole entry, species assumed): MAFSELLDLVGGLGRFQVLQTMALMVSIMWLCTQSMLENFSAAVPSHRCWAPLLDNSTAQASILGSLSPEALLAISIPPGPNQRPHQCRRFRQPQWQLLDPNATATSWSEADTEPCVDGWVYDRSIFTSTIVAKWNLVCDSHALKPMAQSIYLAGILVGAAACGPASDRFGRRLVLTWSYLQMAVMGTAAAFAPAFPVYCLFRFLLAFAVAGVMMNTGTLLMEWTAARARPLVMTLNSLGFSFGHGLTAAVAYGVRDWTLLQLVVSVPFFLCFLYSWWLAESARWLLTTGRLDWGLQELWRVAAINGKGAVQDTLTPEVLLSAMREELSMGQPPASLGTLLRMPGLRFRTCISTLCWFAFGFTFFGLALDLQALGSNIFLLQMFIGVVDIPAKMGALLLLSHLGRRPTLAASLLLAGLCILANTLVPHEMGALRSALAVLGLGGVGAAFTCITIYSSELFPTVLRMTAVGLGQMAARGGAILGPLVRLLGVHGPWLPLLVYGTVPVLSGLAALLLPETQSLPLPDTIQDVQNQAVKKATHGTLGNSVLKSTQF

By IC50 is commonly meant the midpoint of a concentration-inhibition curve. Low values mean greater potency in that assay, high ones weaker potency in that assay. In test [1], `N#Cc1ccc(-c2cnccc2SC2(C(=O)O)CCC2)c2cccn12` [Example 8, 1-((3-(5-cyanoindolizin-8-yl)pyridin-4-yl)thio)cyclobutane-1-carboxylic acid] gave an IC50 of 55 nM. In addition, in test [2], the “serum uric acid levels, time after dosing 0.5 h” value came out at 449.8 ± 39.8 µmol/L; the “serum uric acid levels, time after dosing 1 h” value is 483.9 ± 62.9 µmol/L; the “serum uric acid levels, time after dosing 2 h” value was 451.2 ± 58.9 µmol/L; the “serum uric acid levels, time after dosing 3 h” value was 393.9 ± 68.6 µmol/L. Besides, the “serum uric acid levels, time after dosing 4 h” value in test [2] is 358.3 ± 68.2 µmol/L.
Take `CC(C)(Sc1ccncc1-c1ccc(C#N)n2cccc12)C(=O)O` [Example 9, 2-((3-(5-cyanoindolizin-8-yl)pyridin-4-yl)thio)-2-methylpropanoic acid]: in test [2], the “serum uric acid levels, time after dosing 0.5 h” value amounted to 432.1 ± 43.2 µmol/L; the “serum uric acid levels, time after dosing 1 h” value amounted to 450.8 ± 40.9 µmol/L; the “serum uric acid levels, time after dosing 2 h” value was found to be 385.5 ± 52.2 µmol/L; the “serum uric acid levels, time after dosing 3 h” value came out at 347.1 ± 46.8 µmol/L. For the same compound, the “serum uric acid levels, time after dosing 4 h” value in test [2] was 336.3 ± 59.1 µmol/L.
Compound `N#Cc1ccc(-c2cnccc2SC2(C(=O)O)CCC2)c2ccc(Cl)n12` [Example 10, 1-((3-(3-chloro-5-cyanoindolizin-8-yl)pyridin-4-yl)thio)cyclobutane-1-carboxylic acid] showed an IC50 in test [1] of 424 nM.
Still for that read-out and setting: as for `N#Cc1ccc(-c2cnccc2SC2(C(=O)O)CCC2)c2cc(Cl)cn12` [Example 11, 1-((3-(2-chloro-5-cyanoindolizin-8-yl)pyridin-4-yl)thio)cyclobutane-1-carboxylic acid], the figure is 828 nM; as for `N#Cc1ccc(-c2cnccc2SC2(C(=O)O)CCC2)c2cc(F)cn12` [Example 12, 1-((3-(5-cyano-2-fluoroindolizin-8-yl)pyridin-4-yl)thio)cyclobutane-1-carboxylic acid], 271 nM.
For the compound `N#Cc1ccc(-c2cnccc2SC2(C(=O)O)CCC2)n2cc(Cl)cc12` [Example 13, 1-((3-(2-Chloro-8-cyanoindolizin-5-yl)pyridin-4-yl)thio)cyclobutane-1-carboxylic acid], in test [1], 26 nM corresponded to half-maximal inhibition (IC50). In test [2], the “serum uric acid levels, time after dosing 0.5 h” value came to 487.2 ± 46.9 µmol/L; the “serum uric acid levels, time after dosing 1 h” value came to 523.6 ± 50.4 µmol/L; the “serum uric acid levels, time after dosing 2 h” value came out at 422.0 ± 54.1 µmol/L; the “serum uric acid levels, time after dosing 3 h” value stood at 341.4 ± 69.4 µmol/L. For the same compound, in test [2], the “serum uric acid levels, time after dosing 4 h” value worked out at 295.5 ± 47.2 µmol/L.
`CC(C)(Sc1ccncc1-c1ccc(C#N)c2cc(Cl)cn12)C(=O)O` [Example 14, 2-((3-(2-chloro-8-cyanoindolizin-5-yl)pyridin-4-yl)thio)-2-methylpropanoic acid] gave an IC50 in test [1] of 30 nM. Also, in test [2], the “serum uric acid levels, time after dosing 0.5 h” value came out at 476.3 ± 53.4 µmol/L; the “serum uric acid levels, time after dosing 1 h” value came to 489.5 ± 83.1 µmol/L; the “serum uric acid levels, time after dosing 2 h” value was determined as 385.8 ± 68.2 µmol/L; the “serum uric acid levels, time after dosing 3 h” value was found to be 337.2 ± 72.4 µmol/L. Also, the “serum uric acid levels, time after dosing 4 h” value in test [2] is 285.4 ± 47.7 µmol/L.
Compound `N#Cc1ccc(-c2cnccc2SC2(C(=O)O)CCC2)n2cc(Br)cc12` [Example 15, 1-((3-(2-bromo-8-cyanoindolizin-5-yl)pyridin-4-yl)thio)cyclobutane-1-carboxylic acid] returned an IC50 in test [1] of 29 nM. For the same compound, in test [2], the “serum uric acid levels, time after dosing 0.5 h” value was 476.8 ± 61.7 µmol/L; the “serum uric acid levels, time after dosing 1 h” value is 496.3 ± 74.8 µmol/L; the “serum uric acid levels, time after dosing 2 h” value was 401.7 ± 52.9 µmol/L; the “serum uric acid levels, time after dosing 3 h” value amounted to 331.3 ± 70.5 µmol/L. The “serum uric acid levels, time after dosing 4 h” value in test [2] is 278.0 ± 46.0 µmol/L.
Regarding `CC(C)(Sc1ccncc1-c1ccc(C#N)c2cc(Br)cn12)C(=O)O` [Example 16, 2-((3-(2-bromo-8-cyanoindolizin-5-yl)pyridin-4-yl)thio)-2-methylpropanoic acid], in test [2], the “serum uric acid levels, time after dosing 0.5 h” value was found to be 460.6 ± 46.5 µmol/L; the “serum uric acid levels, time after dosing 1 h” value is 491.9 ± 77.4 µmol/L; the “serum uric acid levels, time after dosing 2 h” value was found to be 380.6 ± 47.4 µmol/L; the “serum uric acid levels, time after dosing 3 h” value was 293.9 ± 42.1 µmol/L. Further, in test [2], the “serum uric acid levels, time after dosing 4 h” value amounted to 264.7 ± 38.8 µmol/L.
In turn, `N#Cc1cc2c(C#N)ccc(-c3cnccc3SC3(C(=O)O)CCC3)n2c1` [Example 17, 1-((3-(2,8-dicyanoindolizin-5-yl)pyridin-4-yl)thio)cyclobutane-1-carboxylic acid] showed a half-maximal inhibitory concentration (IC50) in test [1] of 45 nM. In test [2], the “serum uric acid levels, time after dosing 0.5 h” value turned out to be 454.4 ± 39.8 µmol/L; the “serum uric acid levels, time after dosing 1 h” value amounted to 458.1 ± 66.7 µmol/L; the “serum uric acid levels, time after dosing 2 h” value worked out at 432.2 ± 67.6 µmol/L; the “serum uric acid levels, time after dosing 3 h” value is 403.0 ± 70.0 µmol/L. Moreover, in test [2], the “serum uric acid levels, time after dosing 4 h” value was 340.1 ± 56.0 µmol/L.
`CS(=O)(=O)c1cc2c(C#N)ccc(-c3cnccc3SC3(C(=O)O)CCC3)n2c1` [Example 19, 1-((3-(8-cyano-2-(methylsulfonyl)indolizin-5-yl)pyridin-4-yl)thio)cyclobutane-1-carboxylic acid]: in test [1], the midpoint of inhibition, the IC50, lay at 332 nM.
Same read-out and setting: to `N#Cc1ccc(-c2cnccc2SC2(C(=O)O)CCC2)n2c(F)ccc12` [Example 20, 1-((3-(8-Cyano-3-fluoroindolizin-5-yl)pyridin-4-yl)thio)cyclobutane-1-carboxylic acid] belongs 34 nM; to `N#Cc1ccc(-c2cnccc2SC2(C(=O)O)CCC2)n2ccc(F)c12` [Example 21, 1-((3-(8-cyano-1-fluoroindolizin-5-yl)pyridin-4-yl)thio)cyclobutane-1-carboxylic acid], 85 nM; to `N#Cc1ccc(-c2cnccc2SC2(C(=O)O)CCC2)n2c(Cl)ccc12` [Example 23, 1-((3-(3-chloro-8-cyanoindolizin-5-yl)pyridin-4-yl)thio)cyclobutane-1-carboxylic acid], 89 nM.
On the same count and under the same terms, to `COCC(C)(Sc1ccncc1-c1ccc(C#N)c2cccn12)C(=O)O` (stereo not drawn) [Example 31, 2-((3-(8-cyanoindolizin-5-yl)pyridin-4-yl)thio)-3-methoxy-2-methylpropanoic acid] belongs 504 nM.

(Values after US10894038B2, “Indolizine derivatives, composition and methods of use” (Shanghai Fochon Pharmaceutical Co., Ltd., priority 2015, dated 2021).)
